Results as given in patent US20060246026A1, “Barrier formulation comprising a silicone based emulsion” (priority 2003, published 2006).

Tested on: bacterial counts on the fingertips
Experiment: prEN 12791 in vivo anti-microbial activity on fingertips of volunteers
Set-up: species or system human
Conditions: after 3 minutes (immediate); 20 volunteers; 60% propanol compared with the formulation (p<0.0001)
Experimental: The anti-microbial efficacy of the formulation of Example 5 was assessed in the clinical setting. The acceptability of the formulation of Example 5 by health care workers (HCW) was investigated. In vitro and in vivo assessment of the formulation was undertaken in accordance with European standards currently used for assessing hygienic and surgical rubs and washes (prEN 12054 and prEN 12791).
prEN 12054 and prEN 12791 (European Standards for Assessing Hygienic and Surgical Hand Rubs and Washes) • In vitro antibacterial efficacy of the formulation was assessed for anti-microbial activity against Staphylococcus aureus ATCC 6538, Enterococcus hirae ATCC 10541, Pseudomonas aeruginosa ATCC 15442 and Escherichia coli NCTC 10536 in accordance with prEN 12054. In vivo anti-microbial activity of the formulation was compared with 60% (v/v) […] (gold standard) in accordance with […]. Twenty laboratory volunteers participated in the assessment of the formulation in accordance to prEN 12791.

CCCO [60% propanol, propanol]
Mean reduction factor in the bacterial counts on the fingertips, immediate: significantly higher mean reduction factor
